Patent US20210371388A1, “Bicyclic Carboxamide with Exocyclic Urea Derivatives as Antivirals for the Treatment of HBV Infection” (Baruch S. Blumberg Institute, priority 2020, published 2021)

Test system: HBV replication in AML12HBV10 cells
Assay: Antiviral efficacy: HBV DNA in AML12HBV10 cell lysates by dot-blot hybridization
Format: cell-based
Conditions: Hepatitis B virus, AML12HBV10, 48 h, read-out: Antiviral activity (EC50), AML12HBV10 cells, 48 hours treatment, concentration that reduces the amount of HBV DNA by 50%
Method: The antiviral efficacy of the compounds of the disclosure, as presented in Table 2, were determined in AML12HBV10 cells. AML12HBV10 is an immortalized murine hepatocyte (AML12)-derived stable cell line that supports robust HBV replication in a tetracycline inducible manner (Xu et al.). The cells were seeded into 96 well plates at a density of 2×10^4 cells per well and cultured in DMEM/F12 media with 10% fetal bovine serum in the absence of tetracycline to allow pgRNA transcription and HBV DNA replication. One day after seeding, cells were left untreated or treated with a serial dilution of testing compounds, ranging from 50 μM to 0.39 μM, for 48 hours. Cells were then lysed by adding into each well of 100 μl lysis buffer containing 10 mM Tris-HCl (pH 7.6), 1 mM EDTA, 100 mM NaCl and 1% NP-40 and incubated at 37° C. for 30 minutes. Half amount (50 μλ) of cell lysate from each well was combined with equal volume of denaturing solution containing 0.5N NaOH and 1.5M NaCl. After 5 minute incubation, 100 μl of neutralization solution (1M Tris-HCl, pH 7.4, 1.5M NaCl) was added into each well. The denatured cell lysates (totally 200 μl) were applied onto Nylon membrane using 96-well dot-blot manifold (Biorad). HBV DNA in the cell lysates were determined by dot-blot hybridization with alpha-^32P-UTP-labelled riboprobe specific for HBV minus strand DNA. The antiviral efficacy of a compound of the disclosure was expressed as the concentration that reduces the amount of HBV DNA by 50% (EC50).

| SMILES | EC50 [nM] |
| --- | --- |
| COC(=O)[C@@H]1CC(F)(F)CN1CC1CNc2ccccc2N1C(=O)Nc1ccc(F)c(Cl)c1 (some centres unmarked) [Entry 100] | 1110 |
| O=C(Nc1ccc(F)c(Cl)c1)N1c2ccccc2NCC1CN1CCC2(CC1)OCCO2 (centres unmarked) [Entry 103] | ≥ 10000 |
| CS(=O)(=O)N1CCN(CC2CNc3ccccc3N2C(=O)Nc2ccc(F)c(Cl)c2)CC1 (centres unmarked) [Entry 104] | ≥ 10000 |
| CCOC(=O)C1=C(F)CCN(CC2CNc3ccccc3N2C(=O)Nc2ccc(F)c(Cl)c2)C1 (centres unmarked) [Entry 105] | ≥ 10000 |
| CCOC(=O)C1CN(CC2CNc3ccccc3N2C(=O)Nc2ccc(F)c(Cl)c2)CCC1(F)F (centres unmarked) [Entry 106] | 7680 |
| O=C(O)C1CCCN(CC2CNc3ccccc3N2C(=O)Nc2ccc(F)c(Cl)c2)C1 (centres unmarked) [Entry 107] | ≥ 10000 |
| O=C(Nc1ccc(F)c(Cl)c1)N1c2ccccc2NCC1CN1CCC(F)(F)C(CO)C1 (centres unmarked) [Entry 108] | 2170 |
| O=C(Nc1ccc(F)c(Cl)c1)N1c2ccccc2NCC1CN1CCS(=O)(=O)CC1 (centres unmarked) [Entry 110] | 2000 |
| O=C(Nc1cc(F)c(F)c(F)c1)N1CCN(C(=O)Nc2ccc(F)c(Cl)c2)c2ccccc21 [Entry 111] | 500 |
| O=C(Nc1ccc(F)c(Cl)c1)N1CCN(C(=O)Nc2cc(Cl)c(F)cc2F)c2ccccc21 [Entry 112] | 290 |
| O=C(O)C1CN(CC2CNc3ccccc3N2C(=O)Nc2ccc(F)c(Cl)c2)CC(F)(F)C1 (centres unmarked) [Entry 113] | 450 |
| Cc1cc(NC(=O)N2CCNc3ccccc32)ccc1F [Entry 116] | 240 |
| N#Cc1cc(NC(=O)N2CCNc3ccccc32)ccc1F [Entry 119] | 520 |
| O=C1CCN(C(=O)Nc2ccc(F)c(C(F)(F)F)c2)C2CCCCC12 (centres unmarked) [Entry 120] | 1090 |
| O=C(Nc1ccc(F)c(C(F)(F)F)c1)N1CCNc2ccccc21 [Entry 122] | 320 |
| O=C(Nc1ccc(F)c(C(F)F)c1)N1CCNc2ccccc21 [Entry 125] | 190 |
| O=C1CCN(C(=O)Nc2cccc(Cl)c2)C2CCCCC12 (centres unmarked) [Entry 126] | 200 |
